# Legend:
# [1] = tested on: iCell endothelial cells (human iPSC-derived ECs); assay: High-content imaging cytotoxicity in iCell endothelial cells, 24 h; format: cell-based; conditions: Homo sapiens, Endothelial cell, endothelial cells (endo), 24 hr
# Experimental: (§1) The culture conditions of iCell®-endothelial cells were as reported elsewhere ([Iwata et al. 2017]). Briefly, T75 flasks were coated with a fibronectin solution ( 3 μg/cm^2 ) followed by incubation for 1–2 h. Cells were thawed for 3 min in a 37°C water bath. Thawed cells were added to maintenance medium made of VascuLife VEGF Medium Complete Kit, excluding the supplied FBS, and iCell® Endothelial Cells Medium Supplement. The final formulation of the maintenance medium is detailed in ([Iwata et al. 2017]). The aliquoted fibronectin solution was aspirated from the T75 flasks, and cells were seeded at 1.0×10^4 cells/cm^2 . Cells were maintained at 37°C and 5% CO2 with media changes occurring every 2 d and passaged every 3–4 d using TrypLE™ Express. All experiments were conducted on cells between passages 1 and 5.
# Cytotoxicity was assessed in parallel experiments. For iCell®-endothelial cells, 384-well plates were coated with a 30μg/mL fibronectin solution ( 10μL/well ) and incubated for 2 h at RT. iCell®-endothelial cells were dissociated with TrypLE™ Express and prepared into a solution to achieve 750 cells per well and 50μL of total volume. The fibronectin solution was removed from the 384-well plate, and cells were plated. For HUVECs, similar dissociation and the same cell density were used for plating with the exclusion of the fibronectin solution. Cells were incubated at 37°C and 5% CO2 until a monolayer was formed, typically 3–5 d. 2×PCB plates were created with the requisite maintenance medium. Before treatment, the medium in the wells was exchanged to 25μL/well of fresh maintenance medium. 2×PCB chemical solutions ( […] ) were added. After 24 h incubation at 37°C and 5% CO2 , cells were stained with Hoechst 33342, MitoTracker™ Orange, and calcein AM for 20 min before replacing the staining media with FluoroBright DMEM. Cell culture plates were imaged using the ImageXpress® Micro Confocal high-content imaging system (Molecular Devices). Images were acquired at 10× magnification with DAPI, TRITC, or FITC filter (Hoechst 33342, MitoTracker™, or calcein AM, respectively). The multiwavelength cell scoring applications module in MetaXpress™ (Molecular Devices) was used to analyze the images.
# (§2) Phenotypic responses were quantitatively assessed using concentration–response modeling as detailed elsewhere ([Sirenko et al. 2017]). Briefly, phenotypic readouts were normalized to vehicle controls and fit to a four-parameter logistic model in R studio software (version 3.1.1; R Development Core Team). Following EPA guidance on dose–response modeling, a cutoff of one standard deviation across means of vehicle control (i.e., 0.5% vol/vol DMSO in cell culture media) wells was applied to determine the point-of-departure (POD) values ([U.S. EPA 2012]). In the absence of a concentration–response, the highest tested concentration (i.e., 100μM ) was assigned as “no observable adverse effect level.” The concentration–response assessment R script, as well as templates for vehicle and concentration–response data, are available as a supplement to Sirenko et al. ([2017]). The ability of physicochemical properties to predict differences in PODs were evaluated by multiregression and mixed-effects modeling using R.
# [2] = tested on: iCell endothelial cells (human iPSC-derived ECs); assay: Tube formation (tubulogenesis) assay in iCell endothelial cells, 18 h; format: cell-based; conditions: Homo sapiens, Endothelial cell, endothelial cells (endo), 18 hr
# Experimental: as §1
# Tube formation assays were performed on Geltrex™ LDEV-free reduced growth factor basement membrane using both iCell®-endothelial cells and HUVECs in 384-well format exactly as detailed in Iwata et al. ([2017]). Negative controls included media-only and vehicle control (i.e., 0.5% vol/vol DMSO in cell culture media) wells. Positive assay controls were consistent with previously published reports ([Iwata et al. 2017]) and included TAB ( 50μM ) as a cytotoxic control, and nocodazole ( 0.01–1μM ), suramin ( 0.5–50μM ), histamine ( 0.1–100μM ), and chloroquine ( 1–500μM ) as chemicals associated with specific effects on ECs. Each test chemical was screened in triplicate for each concentration. Briefly, for iCell®-endothelial cells, starvation media consisted of VascuLife® basal medium with 4 mM L-glutamine LifeFactor and 0.1% iCell®-endothelial cells medium supplement. To counter dilution effects, a 2× concentration of the HUVEC maintenance medium supplemented with additional VEGF was created (EGM™-2 BulletKits™ at 2× concentration; also the VEGF component was replaced with 12.5 ng/mL VEGF). Geltrex™ LDEV-free reduced growth factor basement membrane was thawed overnight and dispensed into 384-well plates ( 10μL/well ) with tapping and rotating to evenly coat. The plates were incubated for 1 h in a cell culture incubator at 37°C and 5% CO2 . A 2× PCB plate (containing all of the PCBs and metabolites in dose–response) was prepared in basal media and added, 25μL per well, to the Geltrex™ coated plates. On separate plates, cells were seeded 7,500 (iPSC- ECs) or 3,500 (HUVEC) cells/well. Cells were exposed to chemicals overnight at 37°C and 5% CO2 and stained with 3× concentration of calcein AM ( 25μL /well, 6μmol/L ) for 15 min before imaging. Images were captured at 4× magnification with the FITC filter (calcein AM). Images were analyzed with the angiogenesis module software within MetaXpress™ (Molecular Devices).
# as §2
structure (smiles),measurement,setting,value
"Oc1ccc(O)c(-c2ccc(Cl)cc2)c1 [2',5'-diOH-PCB 3, 4-Chloro-2′,5′-dihydroxybiphenyl]",minimal effective concentration,"[1]; cyto, read-out: POD endo.cyto.24hr",6.71 µM
same,minimal effective concentration,"[1]; mito, read-out: POD endo.mito.24hr",6.71 µM
same,minimal effective concentration,"[1]; mitoint, read-out: POD endo.mitoint.24hr",44.6 µM
same,minimal effective concentration,"[1]; nma, read-out: POD endo.nma.24hr",13.7 µM
same,minimal effective concentration,"[1]; tc, read-out: POD endo.tc.24hr",5.78 µM
same,minimal effective concentration,"[2]; tube formation mtl, read-out: POD endo.mtl.18hr",0.47 µM
same,minimal effective concentration,"[2]; tube formation tlps, read-out: POD endo.tlps.18hr",0.53 µM
same,minimal effective concentration,"[2]; tube formation tta, read-out: POD endo.tta.18hr",1.63 µM
same,minimal effective concentration,"[2]; tube formation ttl, read-out: POD endo.ttl.18hr",1.51 µM

# From PMC7377239, “Cardiovascular Effects of Polychlorinated Biphenyls and Their Major Metabolites” (Environmental Health Perspectives, 2020)
